Patent US11110185B2, “Combination formulation” (GE Healthcare AS, priority 2015, dated 2021)

Legend:
[1] = Contrast-enhanced MR imaging of dynamic vascular and delayed phases in minipigs; type: in vivo, Gottingen minipigs; conditions: for Peak Aorta SI: aorta ROI, 3.0 T, IV single injection 0.3 ml/kg; for percentage relative vascular intensity (1-RVI %), AP: arterial phase, 30 secs; for RVI AUC (total vascular enhancement: aorta, IVC, PV): composite RVI curves normalised to liver parenchyma, trapezoidal rule; for percentage relative vascular intensity (1-RVI %), LVP: late venous phase, 120 secs; for percentage relative vascular intensity (1-RVI %), PVP: portal venous phase, 60 secs
Procedure: The study was approved by the Universitair Ziekenhuis Brussel (UZB), Belgium local ethics committee for animal experiments on the 9 Mar. 2016 (EC number: 16-272-4). All animal experiments were carried out in accordance with the applicable laws and regulations. Naïve minipigs (Gottingen minipigs, Ellegaard Gottingen Minipigs, Denmark) were chosen as the model as its cardiac function and vascular dynamics closely resembles that of the human allowing optimal spatial and temporal resolution for the evaluation of the dynamic vascular phase.
The study consisted of five dosing groups (2 groups of contrast agent administered as single stand-alone dose; 3 groups administered with the Combo formulations). Each animal was tested once within each dosing group with a washout period of one week.
For each MRI examination, anaesthesia was induced with a bolus of the Zoletil mixture (0.06 ml/kg, intramuscular) and maintained by an infusion of Nesdonal (0.6 ml/kg/h, intravenously (IV) administered). Test items were administered IV as a single injection via PAC unit (Port-a-cath, Power PAC II, 1.9 mm, Smiths Medical, Belgium). The test items were administered at a volume of 0.3 ml/kg using a power injector (Medrad Spectris Solaris) at a rate of 2 ml/s. Immediately following administration, 20 ml saline was passed through the tubing to flush any remaining test item.
All MRI acquisitions were performed on a clinical 3.0 T GE MR750w scanner (GE Discovery, GE Healthcare, Waukesha, Wis.) using an abdominal phase-array surface coil positioned on the abdomen of the pigs. A multiphase dynamic 3D T1w LAVA (Liver Acquisition with Volume Acquisition) was performed using bolus timing to capture the early arterial to the late venous vascular phase using the following imaging parameters: TR/TE=2.9/1.3 ms, FA=12°, FoV=42×40 cm, matrix 220×160, slice thickness=3 mm, number of slices=40, NEX=1. The protocol also included a free-breathing navigated LAVA acquired at both pre and post administration of test item (during the delayed enhancement phase).
Quantitative analysis on the time-resolved dynamic series was completed using the Advantage Windows VolumeShare 7 Workstation (GE Healthcare). […] Visual verification of all ROI locations was performed by an abdominal radiologist. For each test item, absolute signal intensity (SI) curves were analysed for each of the ROIs and expressed as peak value with inter-quartile ranges of 25% and 75%.
To calculate the vascular enhancement, relative vascular intensity (RVI) was normalised to liver parenchyma for the aorta, IVC and PV using the equation below.
Relative Vascular Intensity (RVI)=(SI(Vessel)−SI(Liver))/(SI(Liver))
Using the RVI curves, composite vascular intensity curves were derived encompassing all vascular signal from the aorta, IVC and the PV. The total vascular enhancement associated with each test item was determined by the trapezoidal rule of area under the curve (AUC), where positive signal above y=0 was included. From this, time-relative fractions at the arterial phase (AP: 30 secs), portal venous phase (PVP: 60 secs) and late venous phase (LVP: 120 secs) were expressed as a proportion of the total vascular AUC (% RVI) and were calculated as 1-% RVI to give the percentage reduction though each phase.
For the delayed phase, a qualitative assessment was performed by an experienced radiologist for the presence or lack of enhancement pre and post-administration of test item.

[2] = In vitro relaxivity measurements (NMR relaxometer, 60 MHz, 37° C.); type: physicochemical
Procedure: In vitro relaxivity measurements were used to evaluate the efficacy (relaxivity) of the Combo formulations compared to the standalone commercial contrast agents. Longitudinal relaxation times were measured in 150 mM saline solution at 37° C. using a Minispec Mq benchtop NMR relaxometer (Bruker Instruments, Rheinstetten, Germany) operating at 60 MHz. The longitudinal relaxivity of the complexes were calculated by plotting the reciprocal of the T1 relaxation time versus the gadolinium concentration as determined via ICP-MS for each individual agent and the Combo formulations tested.

[3] = normal liver, after intravenous injection; cited from earlier work

| Substance | peak arterial enhancement, SI (in words) ([1]; SI curves, aorta) | Peak Aorta SI [1] | percentage relative vascular intensity (1-RVI %), AP [1] | RVI AUC (total vascular enhancement: aorta, IVC, PV) [1] | percentage relative vascular intensity (1-RVI %), LVP [1] | percentage relative vascular intensity (1-RVI %), PVP [1] | Relaxivity in aqueous solution (r1) [2] | hepatobiliary excretion [3] | vascular enhancement in LVP (in words) ([1]; 120 secs post injection) |
| --- | --- | --- | --- | --- | --- | --- | --- | --- | --- |
| 2-[4,7-his(carboxylatomethyl)-1 0-(carboxymethyl)-1,4, 7,10-tetrazacyclododec-1-yl]acetate; gadolinium(3+) [Gadoterate] | highest SI | 2402 | 97.5% | 63.2 AU | 8.4% | 42.8% | 2.9 mM⁻¹ s⁻¹ |  |  |
| disodium; 2-[[2-[bis(carboxylatomethyl)amino]-3-(4-ethoxyphenyl)propyl]-[2-bis(carboxylatomethyl)amino]ethyl]amino]acetate, gadolinium(3+) [Gadoxetate] |  | 2096 | 82.4% | 34.2 AU | 0.0% | 19.0% | 4.7 mM⁻¹ s⁻¹ | up to 50% | no vascular enhancement evident |
